Patent US9073863B2, “Cyanoquinoline compounds having activity in correcting mutant-CFTR processing and increasing ion transport and uses thereof” (The Regents of the University of California, priority 2011, dated 2015)

Assays:
Format in all cases: cell-based
[1] = target: T1, ΔF508-CFTR (Homo sapiens, UniProt P13569, DEL508-508); assay: Short-circuit current (apical membrane chloride current) corrector assay in ΔF508-CFTR expressing FRT cells
T1 construct: expressed in transfected cells; host or cells: Fischer rat thyroid (FRT) epithelial cells, stably transfected
T1 sequence (P13569 with tags, fused parts or gaps DEL508-508): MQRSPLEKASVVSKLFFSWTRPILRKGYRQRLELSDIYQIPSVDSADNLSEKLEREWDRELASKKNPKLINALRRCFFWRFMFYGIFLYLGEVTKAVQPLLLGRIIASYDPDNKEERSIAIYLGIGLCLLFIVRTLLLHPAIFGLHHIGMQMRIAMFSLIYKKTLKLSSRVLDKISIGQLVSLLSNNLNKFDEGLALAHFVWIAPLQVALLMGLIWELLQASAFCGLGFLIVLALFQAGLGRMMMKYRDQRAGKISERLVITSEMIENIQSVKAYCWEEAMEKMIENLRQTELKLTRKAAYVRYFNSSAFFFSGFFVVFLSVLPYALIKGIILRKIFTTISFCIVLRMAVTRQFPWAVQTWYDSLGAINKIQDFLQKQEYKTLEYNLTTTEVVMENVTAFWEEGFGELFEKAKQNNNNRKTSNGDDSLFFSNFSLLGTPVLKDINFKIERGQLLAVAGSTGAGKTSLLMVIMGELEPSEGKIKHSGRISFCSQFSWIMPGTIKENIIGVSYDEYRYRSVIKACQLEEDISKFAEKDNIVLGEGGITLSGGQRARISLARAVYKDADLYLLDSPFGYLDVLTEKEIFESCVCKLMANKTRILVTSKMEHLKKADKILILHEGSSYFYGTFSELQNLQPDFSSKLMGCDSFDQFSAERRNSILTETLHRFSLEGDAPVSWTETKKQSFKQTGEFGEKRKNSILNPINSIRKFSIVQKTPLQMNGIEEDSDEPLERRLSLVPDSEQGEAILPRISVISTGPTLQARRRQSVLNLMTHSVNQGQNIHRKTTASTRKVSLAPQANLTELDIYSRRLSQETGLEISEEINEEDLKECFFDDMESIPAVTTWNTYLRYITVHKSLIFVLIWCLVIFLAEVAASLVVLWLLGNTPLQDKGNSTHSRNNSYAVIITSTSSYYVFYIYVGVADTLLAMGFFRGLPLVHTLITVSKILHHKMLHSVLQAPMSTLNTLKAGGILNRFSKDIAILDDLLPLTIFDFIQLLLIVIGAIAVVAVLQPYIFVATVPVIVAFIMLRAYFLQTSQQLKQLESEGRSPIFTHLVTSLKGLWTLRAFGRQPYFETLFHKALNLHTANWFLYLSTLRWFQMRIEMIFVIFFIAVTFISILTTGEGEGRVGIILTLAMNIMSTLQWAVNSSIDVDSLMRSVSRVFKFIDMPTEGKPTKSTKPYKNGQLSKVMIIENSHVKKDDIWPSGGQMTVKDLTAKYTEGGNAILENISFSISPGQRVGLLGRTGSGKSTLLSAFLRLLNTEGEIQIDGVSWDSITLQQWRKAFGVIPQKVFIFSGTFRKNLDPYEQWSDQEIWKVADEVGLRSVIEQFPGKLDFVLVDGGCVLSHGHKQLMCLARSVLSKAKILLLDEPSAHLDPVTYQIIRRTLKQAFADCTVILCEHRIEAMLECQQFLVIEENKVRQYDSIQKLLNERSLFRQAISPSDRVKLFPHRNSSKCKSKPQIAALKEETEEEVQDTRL
Method: (§1) Short-circuit current measurements. ΔF508-CFTR-expressing FRT cells were cultured on Snapwell inserts for 7-9 days. For corrector testing, test compounds were incubated with FRT cells for 18-24 h at 37° C. prior to measurements. For potentiator testing, the FRT cells were incubated for 18-24 h at 27° C. prior to measurements. The basolateral solution contained 130 mM NaCl, 2.7 mM KCl, 1.5 mM KH2PO4, 1 mM CaCl2, 0.5 mM MgCl2, 10 mM glucose, and 10 mM Na-HEPES (pH 7.3). In the apical bathing solution, 65 mM NaCl was replaced by Na gluconate, and CaCl2 was increased to 2 mM. Solutions were bubbled with air and maintained at 37° C. The basolateral membrane was permeabilized with 250 μg/ml amphotericin B. Hemichambers were connected to a DVC-1000 voltage clamp (World Precision Instruments Inc.) via Ag/AgCl electrodes and 1 M KCl agar bridges for recording of short-circuit current.
Short-circuit current was measured as a definitive electrophysiological assay to verify Compound 22 corrector action. Apical membrane chloride current was measured in ΔF508-CFTR expressing FRT cells after basolateral membrane permeabilization and in the presence of a transepithelial chloride gradient (apical, 65 mM; basolateral, 130 mM). In FIG. 3C, incubation with Corr-4a (5 μM) is shown as reference (right). Forskolin (20 μM), genistein (50 μM) and CFTRinh-172 (10 μM) were added where indicated. […] FIG. 3D summarizes Compound 22 concentration dependence data from short-circuit current studies. […]
(§2) Short-circuit current was measured in an electrophysiology assay to verify corrector activity. Apical membrane chloride current was measured in ΔF508-CFTR expressing FRT cells after basolateral membrane permeabilization and in the presence of a transepithelial chloride gradient. […] To assay potentiator activity apical membrane chloride current was measured after low-temperature rescue, in response to CP-3 addition. CP-3 concentration-dependent increases in apical membrane current were measured in the presence of 5 μM forskolin. […]

[2] = target: T1, ΔF508-CFTR; assay: Short-circuit current potentiator assay in ΔF508-CFTR expressing FRT cells after low-temperature rescue; settings: 27° C. for 24 h prior to measurement, in the presence of forskolin; read-out: Apparent EC50 for potentiator activity as measured by short-circuit current
Method: as §1, with “The basolateral membrane was permeabilized with 250 μg/ml amphotericin B. Hemichambers were connected to a DVC-1000 voltage clamp (World Precision Instruments Inc.) via Ag/AgCl electrodes and 1 M KCl agar bridges for recording of short-circuit current.” left out
Short-circuit current measurements were performed to further characterize Compound 22 potentiator activity in which apical membrane chloride current was measured in ΔF508-CFTR expressing FRT cells, after low-temperature rescue, in response to Compound 22 additions. […]
as §2, with “addition.” for “addition. CP-3 concentration-dependent increases in apical membrane current were measured in the presence of 5 μM forskolin.”

[3] = target: T2, wildtype CFTR (Homo sapiens, UniProt P13569); assay: Short-circuit current in FRT cells expressing wildtype CFTR; settings: added after 0.25 or 0.5 μM forskolin
T2 construct: expressed in transfected cells; host or cells: Fischer rat thyroid (FRT) epithelial cells, stably transfected
T2 sequence (P13569 whole entry): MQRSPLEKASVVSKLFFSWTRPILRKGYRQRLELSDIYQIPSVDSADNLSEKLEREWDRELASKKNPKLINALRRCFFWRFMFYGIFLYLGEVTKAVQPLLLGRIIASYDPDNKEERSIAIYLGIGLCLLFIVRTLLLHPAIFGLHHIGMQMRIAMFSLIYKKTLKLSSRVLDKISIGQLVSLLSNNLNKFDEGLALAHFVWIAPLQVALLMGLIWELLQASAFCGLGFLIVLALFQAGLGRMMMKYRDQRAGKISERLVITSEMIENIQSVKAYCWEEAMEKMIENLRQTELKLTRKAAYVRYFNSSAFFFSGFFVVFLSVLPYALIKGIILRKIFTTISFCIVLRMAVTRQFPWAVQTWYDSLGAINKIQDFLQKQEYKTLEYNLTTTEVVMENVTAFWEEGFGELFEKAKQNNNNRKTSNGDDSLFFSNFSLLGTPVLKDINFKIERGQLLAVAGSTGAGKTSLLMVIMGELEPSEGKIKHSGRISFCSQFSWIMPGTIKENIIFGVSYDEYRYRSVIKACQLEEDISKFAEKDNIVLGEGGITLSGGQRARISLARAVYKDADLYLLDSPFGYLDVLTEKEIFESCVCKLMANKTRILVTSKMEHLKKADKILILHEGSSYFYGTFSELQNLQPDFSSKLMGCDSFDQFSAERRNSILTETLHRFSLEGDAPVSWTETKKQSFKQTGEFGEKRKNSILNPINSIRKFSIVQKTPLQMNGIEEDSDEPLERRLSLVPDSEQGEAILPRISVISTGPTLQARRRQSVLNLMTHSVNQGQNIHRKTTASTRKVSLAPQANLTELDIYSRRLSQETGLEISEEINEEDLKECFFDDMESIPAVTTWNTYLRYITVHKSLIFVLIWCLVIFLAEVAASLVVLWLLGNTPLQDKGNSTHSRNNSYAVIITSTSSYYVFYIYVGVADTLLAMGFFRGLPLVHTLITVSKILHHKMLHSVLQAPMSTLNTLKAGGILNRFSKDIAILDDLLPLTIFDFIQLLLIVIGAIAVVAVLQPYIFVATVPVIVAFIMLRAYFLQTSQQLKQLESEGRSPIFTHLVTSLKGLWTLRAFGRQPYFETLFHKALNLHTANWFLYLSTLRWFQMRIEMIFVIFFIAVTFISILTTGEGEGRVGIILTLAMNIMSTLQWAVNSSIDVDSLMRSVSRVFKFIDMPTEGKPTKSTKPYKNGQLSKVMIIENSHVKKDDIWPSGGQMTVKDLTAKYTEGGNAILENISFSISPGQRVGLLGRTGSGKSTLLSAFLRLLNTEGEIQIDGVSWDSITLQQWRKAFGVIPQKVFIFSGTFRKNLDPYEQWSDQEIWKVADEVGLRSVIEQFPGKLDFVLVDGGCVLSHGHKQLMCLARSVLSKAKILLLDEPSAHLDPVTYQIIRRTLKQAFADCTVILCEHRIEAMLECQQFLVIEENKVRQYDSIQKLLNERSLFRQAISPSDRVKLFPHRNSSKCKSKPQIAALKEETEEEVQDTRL
Method: To further investigate Compound 22 potentiator action, short-circuit current was measured in FRT cells expressing wildtype CFTR (FIG. 5B). Studies were done as in FIG. 5A except that low concentrations of forskolin (0-0.5 μM) were used because higher concentrations fully activate wildtype CFTR and thus would mask Compound 22 potentiator action. As found for ΔF508-CFTR, there was little effect of Compound 22 in the absence of forskolin. In each experiment, after Compound 22 additions, 10 μM forskolin was added to fully activate wildtype CFTR, followed by 50 μM genistein, which had little effect, followed by 10 μM CFTRinh-172, which inhibited all chloride current.

[4] = target: T3, G551D-CFTR (Homo sapiens, UniProt P13569, G551D); assay: Plate reader assay of G551D-CFTR chloride conductance in FRT cells; settings: in the presence of 20 μM forskolin
T3 construct: expressed in transfected cells; host or cells: Fischer rat thyroid (FRT) epithelial cells, stably transfected
T3 sequence (P13569 whole entry G551D): as the sequence (P13569 whole entry) above, with G551D counted along it
Method: Potentiator studies were also performed in FRT cells expressing G551D-CFTR, a CF-causing CFTR mutation with defective channel gating but not plasma membrane trafficking. […] Where indicated, genistein (100 μM) and CFTRinh-172 (10 μM) were added. Graphs are representative of 3 sets of measurements. […] Measurements were made in the presence of 20 μM forskolin.
Representative fluorescence quenching curves (FIG. 6B (top)) shown with deduced Compound 22 and genistein concentration dependence (FIG. 6B (bottom), SEM, n=4). Fluorescence plate reader assays in FIG. 6B confirmed that Compound 22 activated G551D-CFTR in the presence of forskolin, with lower maximal efficacy than genistein.

COc1cccc(C(=O)NCCNc2nc3cc(C)cc(C)c3cc2C#N)c1 [Compound 22, N-(2-((3-Cyano-5,7-dimethylquinolin-2-yl)amino)ethyl)-3-methoxybenzamide]
increase in apical membrane current (corrector) ([1]; 5 and 10 μM, 18-24 h incubation): comparable to that conferred by 5 μM Corr-4a
corrector and potentiator maximum efficacy ([1]; electrophysiological analysis): comparable to those of the bithiazole Corr-4a and the flavone genistein
EC50 [2]: ~10 µM
activation of wildtype CFTR, in words [3]: partially activated
EC50 ([3]; read-out: EC50 of wildtype CFTR activation): ~10 µM
maximum efficacy of G551D-CFTR activation [4]: lower than that of genistein
EC50 ([4]; read-out: Apparent EC50 for activation of G551-CFTR): ~5 µM
